Results from paper PMC3685270 (Clinical pharmacology and therapeutics, 2011).
Values after ≈ are worked out from the molar mass of the structure shown. “Also recorded” adds a separate entry of the source. Where two headings read alike, the source gives them in different places.

What was measured:
[1] = format: in vivo, human; settings: humans, maximum administered dose 8 mg/kg
[2] = target: T1, P-glycoprotein (Pgp) at the blood-brain barrier (Homo sapiens, UniProt P08183); settings: (R)-[^11C]verapamil whole brain, tariquidar 2 mg/kg, n=5, cited from earlier work
[3] = test system: P-glycoprotein (Pgp) at the blood-brain barrier; settings: cited from earlier work
[4] = target: T1, P-glycoprotein (Pgp) at the blood-brain barrier; format: in vivo; settings: for EC50: tariquidar plasma concentration at end of PET scan
Unmetabolized = format: in vivo, human; settings: AUC 0-40 min, different tariquidar doses vs 0 mg/kg
[5] = previous studies (human and rat); cited from earlier work
Pgp at the human BBB [6] = settings: 2 mg/kg dose; cited from earlier work
[7] = Safety monitoring / adverse events after tariquidar infusion; format: in vivo, human; settings: for Tolerability: healthy subjects, 3, 4, 6 and 8 mg/kg i.v. infusion
[8] = test system: breast cancer resistance protein (BCRP, ABCG2); settings: cited from earlier work
[9] = rats, bolus administration of 30 mg/kg; cited from earlier work
[10] = humans; cited from earlier work
[11] = test system: Pgp in CD56-positive lymphocytes; settings: single i.v. dose of 2 mg/kg, over 24 h; cited from earlier work
Pgp at the human BBB [12] = test: [^11C]-N-desmethyl-loperamide PET after tariquidar in healthy human subjects; format: in vivo; settings: humans, without tariquidar
[13] = rat, tariquidar plasma concentration at end of PET scan, 0-60 min

T1 sequence (P08183 whole entry): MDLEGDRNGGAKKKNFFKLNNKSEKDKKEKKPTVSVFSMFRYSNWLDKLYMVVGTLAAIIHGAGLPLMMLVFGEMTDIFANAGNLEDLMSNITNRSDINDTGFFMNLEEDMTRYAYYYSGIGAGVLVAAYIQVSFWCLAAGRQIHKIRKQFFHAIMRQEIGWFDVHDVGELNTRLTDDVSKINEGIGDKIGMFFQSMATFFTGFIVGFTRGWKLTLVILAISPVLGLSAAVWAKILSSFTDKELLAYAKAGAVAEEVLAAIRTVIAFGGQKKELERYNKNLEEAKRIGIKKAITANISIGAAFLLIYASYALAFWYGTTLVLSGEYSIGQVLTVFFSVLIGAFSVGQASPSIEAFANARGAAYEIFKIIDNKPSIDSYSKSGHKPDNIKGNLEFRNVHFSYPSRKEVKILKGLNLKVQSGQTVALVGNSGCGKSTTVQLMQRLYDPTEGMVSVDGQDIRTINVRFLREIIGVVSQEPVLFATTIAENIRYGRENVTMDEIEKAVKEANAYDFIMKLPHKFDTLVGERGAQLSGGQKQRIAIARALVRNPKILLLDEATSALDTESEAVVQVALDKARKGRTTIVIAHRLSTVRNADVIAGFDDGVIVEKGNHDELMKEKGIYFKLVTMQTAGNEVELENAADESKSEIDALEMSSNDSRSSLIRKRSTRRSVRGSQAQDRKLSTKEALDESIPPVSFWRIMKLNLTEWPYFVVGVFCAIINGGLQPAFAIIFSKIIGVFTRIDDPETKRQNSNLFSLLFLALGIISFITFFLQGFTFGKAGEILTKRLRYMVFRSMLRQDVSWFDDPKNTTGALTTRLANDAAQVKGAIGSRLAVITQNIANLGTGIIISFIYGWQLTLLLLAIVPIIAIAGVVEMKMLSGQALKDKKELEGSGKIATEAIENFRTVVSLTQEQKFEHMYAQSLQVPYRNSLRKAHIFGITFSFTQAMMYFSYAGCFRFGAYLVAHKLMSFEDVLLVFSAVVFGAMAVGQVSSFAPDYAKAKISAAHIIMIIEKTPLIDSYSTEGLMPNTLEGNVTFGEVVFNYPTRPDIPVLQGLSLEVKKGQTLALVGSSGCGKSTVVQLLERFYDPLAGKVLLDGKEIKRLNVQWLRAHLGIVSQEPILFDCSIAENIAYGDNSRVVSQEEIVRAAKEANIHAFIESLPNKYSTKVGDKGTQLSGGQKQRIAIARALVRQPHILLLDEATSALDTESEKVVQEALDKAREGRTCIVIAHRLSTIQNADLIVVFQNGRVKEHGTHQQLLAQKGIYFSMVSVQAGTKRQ

## COc1cc2c(cc1OC)CN(CCc1ccc(NC(=O)c3cc(OC)c(OC)cc3NC(=O)c3cnc4ccccc4c3)cc1)CC2 [tariquidar]
[1]
  Tariquidar plasma concentration at time of PET: up to 1,312 ng/mL
[2]; 0-10 min
  K1 (1T2K): 0.051±0.006 (6) mL·mL^−1·min^−1
[2]; 0-40 min
  K1 (2T4K): 0.051±0.008 (11) mL·mL^−1·min^−1
  VT (2T4K): 0.788±0.087 (2) mL·mL^−1
  k2 (2T4K): 0.123±0.052 (57) min^−1
  k3 (2T4K): 0.156±0.080 (123) min^−1
  k4 (2T4K): 0.191±0.063 (42) min^−1
[3]; [13]
  EC50, K1–K1 baseline (2T4K): 441 ± 81 ng/mL (≈ 0.682 µM)
  EC50, VT–VT baseline (2T4K): 544 ± 32 ng/mL (≈ 0.841 µM)
[3]; rats
  Tariquidar plasma concentration at which brain VT approached plateau levels: > 1,000 ng/mL
[4]; EC50, K1–K1 baseline (1T2K), human, 0-10 min
  EC50: 806 nM
[4]; EC50, K1–K1 baseline (2T4K), human, 0-40 min
  EC50: 813 nM
[4]; EC50, VT–VT baseline (2T4K), human, 0-40 min
  EC50: 867 nM
[4]; human, 0-10 min
  n (Hill coefficient), K1–K1 baseline (1T2K): 6.2±3.5
[4]; human, 0-40 min
  n (Hill coefficient), K1–K1 baseline (2T4K): 6.3±3.5
  n (Hill coefficient), VT–VT baseline (2T4K): 11.3±5.4
[4]; humans
  Tariquidar plasma concentration at which brain VT approached plateau levels: > 1,000 ng/mL
Unmetabolized
  Effect on concentration of unmetabolized (R)-[^11C]verapamil in plasma: lacked pharmacokinetic interactions; also recorded: did not affect
[5]
  Effect of tariquidar on degree of plasma protein binding of (R)-[^11C]verapamil: does not influence
Pgp at the human BBB [6]
  Increase in brain penetration of [^11C]-N-desmethyl-loperamide: 25%
[7]; 8 mg/kg group, infusion stopped 20 min prematurely (7.2 mg/kg administered)
  Hypotension adverse event: one case of moderate hypotension
[7]
  Tolerability: well tolerated at doses 4-times the clinically tried
[7]; listed as Tariquidar
  Tolerability: generally well tolerated
[7]; healthy subjects, 3-8 mg/kg
  Dysgeusia (relationship with study drug could not be excluded): 6 out of 20
[7]; healthy subjects, 3-8 mg/kg, 20 subjects
  Vertigo (relationship with study drug could not be excluded): 3 subjects
[8]
  Inhibition of BCRP: inhibits
[9]
  Tariquidar plasma concentration at the time of the PET scan: up to 7,000 ng/mL
[10]
  Terminal elimination half-life from plasma: 13 to 23 h
[11]
  Block of Pgp in CD56-positive lymphocytes: 100%

## CNC(=O)C(CCN1CCC(O)(c2ccc(Cl)cc2)CC1)(c1ccccc1)c1ccccc1 [[^11C]-N-desmethyl-loperamide]
Pgp at the human BBB [12]
  Baseline brain uptake lower as compared to (R)-[^11C]verapamil: 2 fold
